# Experimental data from ChEMBL document CHEMBL1671696, “Deamplification of pfmdr1-containing amplicon on chromosome 5 in Plasmodium falciparum is associated with reduced resistance to artelinic acid in vitro” (Antimicrob Agents Chemother, 2010).
# Key:
# [1] = tested on: Plasmodium falciparum; assay: Ratio of IC90 for Plasmodium falciparum subclone 3A3 containing 1 copy number of pfmdr1-containing amplicon on chromosome 5 to IC90 for wild type Plasmodium falciparum W2; format: functional
# [2] = tested on: Plasmodium falciparum; assay: Antimicrobial activity against Plasmodium falciparum subclone 3C18 containing 3 copy number of pfmdr1-containing amplicon on chromosome 5 assessed as growth inhibition by [3H]hypoxanthine incorporation assay; format: functional, organism-based
# [3] = tested on: Plasmodium falciparum; assay: Antimicrobial activity against drug pre-treated Plasmodium falciparum clone W2AL80 containing 3 copy number of pfmdr1-containing amplicon on chromosome 5 assessed as growth inhibition by [3H]hypoxanthine incorporation assay; format: functional, organism-based
# [4] = tested on: Plasmodium falciparum; assay: Ratio of IC50 for Plasmodium falciparum subclone 3C10 containing 2 copy number of pfmdr1-containing amplicon on chromosome 5 to IC50 for wild type Plasmodium falciparum W2; format: functional
# [5] = tested on: Plasmodium falciparum; assay: Ratio of IC50 for Plasmodium falciparum clone W2AL80 containing 3 copy number of pfmdr1-containing amplicon on chromosome 5 to IC50 for wild type Plasmodium falciparum W2; format: functional
# [6] = tested on: Plasmodium falciparum; assay: Antimicrobial activity against Plasmodium falciparum subclone 3C10 containing 2 copy number of pfmdr1-containing amplicon on chromosome 5 assessed as growth inhibition by [3H]hypoxanthine incorporation assay; format: functional, organism-based
# [7] = tested on: Plasmodium falciparum; assay: Antimicrobial activity against Plasmodium falciparum subclone 3C20 containing 2 copy number of pfmdr1-containing amplicon on chromosome 5 assessed as growth inhibition by [3H]hypoxanthine incorporation assay; format: functional, organism-based
# [8] = tested on: Plasmodium falciparum; assay: Ratio of IC50 for Plasmodium falciparum subclone 3C1 containing 3 copy number of pfmdr1-containing amplicon on chromosome 5 to IC50 for wild type Plasmodium falciparum W2; format: functional
# [9] = tested on: Plasmodium falciparum; assay: Ratio of IC50 for Plasmodium falciparum subclone 3A8 containing 3 copy number of pfmdr1-containing amplicon on chromosome 5 to IC50 for wild type Plasmodium falciparum W2; format: functional
# [10] = tested on: Plasmodium falciparum; assay: Ratio of IC90 for Plasmodium falciparum subclone 3A26 containing 3 copy number of pfmdr1-containing amplicon on chromosome 5 to IC90 for wild type Plasmodium falciparum W2; format: functional
# [11] = tested on: Plasmodium falciparum; assay: Ratio of IC90 for Plasmodium falciparum subclone 3C20 containing 2 copy number of pfmdr1-containing amplicon on chromosome 5 to IC90 for wild type Plasmodium falciparum W2; format: functional
# [12] = tested on: Plasmodium falciparum; assay: Ratio of IC90 for Plasmodium falciparum subclone 3A7 containing 4 copy number of pfmdr1-containing amplicon on chromosome 5 to IC90 for wild type Plasmodium falciparum W2; format: functional
# [13] = tested on: Plasmodium falciparum; assay: Ratio of IC50 for Plasmodium falciparum subclone 3A3 containing 1 copy number of pfmdr1-containing amplicon on chromosome 5 to IC50 for wild type Plasmodium falciparum W2; format: functional
# [14] = tested on: Plasmodium falciparum; assay: Antimicrobial activity against Plasmodium falciparum subclone 3A12 containing 2 copy number of pfmdr1-containing amplicon on chromosome 5 assessed as growth inhibition by [3H]hypoxanthine incorporation assay; format: functional, organism-based
# [15] = tested on: Plasmodium falciparum; assay: Ratio of IC50 for Plasmodium falciparum subclone 3A17 containing 2 copy number of pfmdr1-containing amplicon on chromosome 5 to IC50 for wild type Plasmodium falciparum W2; format: functional
# [16] = tested on: Plasmodium falciparum; assay: Antimicrobial activity against Plasmodium falciparum subclone 3C1 containing 3 copy number of pfmdr1-containing amplicon on chromosome 5 assessed as growth inhibition by [3H]hypoxanthine incorporation assay; format: functional, organism-based
# [17] = tested on: Plasmodium falciparum; assay: Antimicrobial activity against Plasmodium falciparum subclone 3A26 containing 3 copy number of pfmdr1-containing amplicon on chromosome 5 assessed as growth inhibition by [3H]hypoxanthine incorporation assay; format: functional, organism-based
# [18] = tested on: Plasmodium falciparum; assay: Ratio of IC50 for Plasmodium falciparum subclone 3A12 containing 2 copy number of pfmdr1-containing amplicon on chromosome 5 to IC50 for wild type Plasmodium falciparum W2; format: functional
# [19] = tested on: Plasmodium falciparum; assay: Ratio of IC90 for Plasmodium falciparum subclone 3C18 containing 3 copy number of pfmdr1-containing amplicon on chromosome 5 to IC90 for wild type Plasmodium falciparum W2; format: functional
# [20] = tested on: Plasmodium falciparum; assay: Antimicrobial activity against Plasmodium falciparum subclone 3A1 containing 1 copy number of pfmdr1-containing amplicon on chromosome 5 assessed as growth inhibition by [3H]hypoxanthine incorporation assay; format: functional, organism-based
# [21] = tested on: Plasmodium falciparum; assay: Antimicrobial activity against compound-sensitive Plasmodium falciparum clone W2 assessed as growth inhibition by [3H]hypoxanthine incorporation assay; format: functional, organism-based
# [22] = tested on: Plasmodium falciparum; assay: Ratio of IC90 for Plasmodium falciparum subclone 3A1 containing 1 copy number of pfmdr1-containing amplicon on chromosome 5 to IC90 for wild type Plasmodium falciparum W2; format: functional
# [23] = tested on: Plasmodium falciparum; assay: Ratio of IC90 for Plasmodium falciparum subclone 3C1 containing 3 copy number of pfmdr1-containing amplicon on chromosome 5 to IC90 for wild type Plasmodium falciparum W2; format: functional
# [24] = tested on: Plasmodium falciparum; assay: Ratio of IC50 for Plasmodium falciparum subclone 3C18 containing 3 copy number of pfmdr1-containing amplicon on chromosome 5 to IC50 for wild type Plasmodium falciparum W2; format: functional
# [25] = tested on: Plasmodium falciparum; assay: Ratio of IC50 for Plasmodium falciparum subclone 3C20 containing 2 copy number of pfmdr1-containing amplicon on chromosome 5 to IC50 for wild type Plasmodium falciparum W2; format: functional
# [26] = tested on: Plasmodium falciparum; assay: Ratio of IC50 for Plasmodium falciparum subclone 3A1 containing 1 copy number of pfmdr1-containing amplicon on chromosome 5 to IC50 for wild type Plasmodium falciparum W2; format: functional
# [27] = tested on: Plasmodium falciparum; assay: Antimicrobial activity against Plasmodium falciparum subclone 3A3 containing 1 copy number of pfmdr1-containing amplicon on chromosome 5 assessed as growth inhibition by [3H]hypoxanthine incorporation assay; format: functional, organism-based
# [28] = tested on: Plasmodium falciparum; assay: Ratio of IC90 for Plasmodium falciparum subclone 3A17 containing 2 copy number of pfmdr1-containing amplicon on chromosome 5 to IC90 for wild type Plasmodium falciparum W2; format: functional
# [29] = tested on: Plasmodium falciparum; assay: Antimicrobial activity against Plasmodium falciparum subclone 3A17 containing 2 copy number of pfmdr1-containing amplicon on chromosome 5 assessed as growth inhibition by [3H]hypoxanthine incorporation assay; format: functional, organism-based
# [30] = tested on: Plasmodium falciparum; assay: Ratio of IC50 for Plasmodium falciparum subclone 3A7 containing 4 copy number of pfmdr1-containing amplicon on chromosome 5 to IC50 for wild type Plasmodium falciparum W2; format: functional
# [31] = tested on: Plasmodium falciparum; assay: Antimicrobial activity against Plasmodium falciparum subclone 3A7 containing 4 copy number of pfmdr1-containing amplicon on chromosome 5 assessed as growth inhibition by [3H]hypoxanthine incorporation assay; format: functional, organism-based
# [32] = tested on: Plasmodium falciparum; assay: Ratio of IC90 for Plasmodium falciparum subclone 3A8 containing 3 copy number of pfmdr1-containing amplicon on chromosome 5 to IC90 for wild type Plasmodium falciparum W2; format: functional
# [33] = tested on: Plasmodium falciparum; assay: Ratio of IC90 for Plasmodium falciparum subclone 3C10 containing 2 copy number of pfmdr1-containing amplicon on chromosome 5 to IC90 for wild type Plasmodium falciparum W2; format: functional
# [34] = tested on: Plasmodium falciparum; assay: Ratio of IC90 for Plasmodium falciparum subclone 3A12 containing 2 copy number of pfmdr1-containing amplicon on chromosome 5 to IC90 for wild type Plasmodium falciparum W2; format: functional
# [35] = tested on: Plasmodium falciparum; assay: Ratio of IC50 for Plasmodium falciparum subclone 3A26 containing 3 copy number of pfmdr1-containing amplicon on chromosome 5 to IC50 for wild type Plasmodium falciparum W2; format: functional
# [36] = tested on: Plasmodium falciparum; assay: Ratio of IC90 for Plasmodium falciparum clone W2AL80 containing 3 copy number of pfmdr1-containing amplicon on chromosome 5 to IC90 for wild type Plasmodium falciparum W2; format: functional
# [37] = tested on: Plasmodium falciparum; assay: Antimicrobial activity against Plasmodium falciparum subclone 3A8 containing 3 copy number of pfmdr1-containing amplicon on chromosome 5 assessed as growth inhibition by [3H]hypoxanthine incorporation assay; format: functional, organism-based
compound,measurement,setting,value
C[C@@H]1[C@H](OCc2ccc(C(=O)O)cc2)O[C@@H]2O[C@@]3(C)CC[C@@H]4[C@@H](C)CC[C@@H]1[C@]24OO3 [ARTELINIC ACID],Ratio,[1],9.3
same,IC50,[2],0.0814 µg/mL
same,IC90,[2],0.111 µg/mL
same,IC50,[3],0.0488 µg/mL
same,IC90,[3],0.123 µg/mL
same,Ratio IC50,[4],10.2
same,Ratio IC50,[5],12.7
same,IC50,[6],0.0395 µg/mL
same,IC90,[6],0.0936 µg/mL
same,IC50,[7],0.0424 µg/mL
same,IC90,[7],0.08 µg/mL
same,Ratio IC50,[8],18.9
same,Ratio IC50,[9],16.3
same,Ratio,[10],20.7
same,Ratio,[11],14.7
same,Ratio,[12],17
same,Ratio IC50,[13],8.8
same,IC50,[14],0.0423 µg/mL
same,IC90,[14],0.114 µg/mL
same,Ratio IC50,[15],12.5
same,IC50,[16],0.0731 µg/mL
same,IC90,[16],0.1 µg/mL
same,IC50,[17],0.052 µg/mL
same,IC90,[17],0.113 µg/mL
same,Ratio IC50,[18],11
same,Ratio,[19],20.4
same,IC50,[20],0.0294 µg/mL
same,IC90,[20],0.0531 µg/mL
same,IC50,[21],0.00386 µg/mL
same,IC90,[21],0.00544 µg/mL
same,Ratio,[22],9.8
same,Ratio,[23],18.5
same,Ratio IC50,[24],21.1
same,Ratio IC50,[25],11
same,Ratio IC50,[26],7.6
same,IC50,[27],0.034 µg/mL
same,IC90,[27],0.0504 µg/mL
same,Ratio,[28],15.9
same,IC50,[29],0.0481 µg/mL
same,IC90,[29],0.0867 µg/mL
same,Ratio IC50,[30],12.1
same,IC50,[31],0.0467 µg/mL
same,IC90,[31],0.0924 µg/mL
same,Ratio,[32],22
same,Ratio,[33],17.2
same,Ratio,[34],20.9
same,Ratio IC50,[35],13.5
same,Ratio,[36],22.7
same,IC50,[37],0.0629 µg/mL
same,IC90,[37],0.12 µg/mL
OC(c1cc(C(F)(F)F)nc2c(C(F)(F)F)cccc12)C1CCCCN1 (stereo unspecified) [MEFLOQUINE],Ratio,[1],2.8
same,IC90,[2],0.102 µg/mL
same,IC90,[3],0.104 µg/mL
same,Ratio IC50,[4],3
same,Ratio IC50,[5],2.3
same,IC90,[6],0.0821 µg/mL
same,IC90,[7],0.0833 µg/mL
same,Ratio IC50,[8],3.1
same,Ratio IC50,[9],2.6
same,Ratio,[10],5.2
same,Ratio,[11],5.7
same,Ratio,[12],5.4
same,Ratio IC50,[13],1.7
same,IC90,[14],0.0519 µg/mL
same,Ratio IC50,[15],2.6
same,IC90,[16],0.0849 µg/mL
same,IC50,[17],0.0191 µg/mL
same,IC90,[17],0.075 µg/mL
same,Ratio IC50,[18],1.7
same,Ratio,[19],7
same,IC50,[20],0.00738 µg/mL
same,IC90,[20],0.0261 µg/mL
same,IC50,[21],0.00772 µg/mL
same,IC90,[21],0.0145 µg/mL
same,Ratio,[22],1.8
same,Ratio,[23],5.9
same,Ratio IC50,[24],2.9
same,Ratio IC50,[25],2.2
same,Ratio IC50,[26],1
same,IC90,[27],0.0406 µg/mL
same,Ratio,[28],6.6
same,IC50,[29],0.019 µg/mL
same,IC90,[29],0.0954 µg/mL
same,Ratio IC50,[30],3.8
same,IC90,[31],0.0778 µg/mL
same,Ratio,[32],5.2
same,Ratio,[33],5.9
same,Ratio,[34],3.6
same,Ratio IC50,[35],2.5
same,Ratio,[36],7.2
same,IC90,[37],0.0756 µg/mL
